One assay concerns NCI-H69. The assay is described as follows: Cell killing in NCI-H69 by CGT (CellTiter-Glo). Particulars: NCI-H69, 96 h; Inh% relative to DMSO control, 4-parameter fit. Type of assay: cell-based. As for the experimental part: Approximately 5 µL of the PDC was added to the corresponding wells of the plate, and compared with DMSO (control, without the PDC of the present application), PTX, MMAE, and Dxd wells. The final concentration of DMSO in each well was 0.2%; • (5) The cells were incubated in a 5% CO2 incubator at 37°C for 96 h; • (6) The cell culture plate was equilibrated to room temperature, and 50 µL of CellTiter-Glo® Reagent was added to each well; • (7) The plate was placed on a shaker for 2 min to ensure complete cell lysis; • (8) After mixing, the plate was placed at room temperature to react for 10 min. The fluorescence value (in RLU) was read when the signal became stable. • c) Data analysis • (1) The inhibition (Inh %) relative to the DMSO control was calculated as follows: Inhibition (Inh%)= 100 -(RLU of compound - RLU of DMSO control)/ (RLU of DMSO control - RLU of blank)*100% • (2) The data were analyzed using Graphpad 5.0 software. A 4-parameter equation was fitted to generate a concentration-response curve to obtain the IC50. Table 3: Test Results of Cell Killing in NCI-H69

Assay [1] has as its system Human multiple myeloma MM.1S cells. The assay is described as follows: EX3.3 in vivo pharmacodynamics, MM.1S subcutaneous xenograft model. Set-up: species or system CB17 SCID mice. The settings on record: for Tumor Volume (Mean ± SEM): IV, Twice Weekly. The method, then:
Human multiple myeloma MM.1S cells were suspended and cultured in vitro in 1640 medium containing 10% fetal bovine serum, 100 U/mL penicillin, and 100 µg/mL streptomycin in a 5% CO2 incubator at 37°C. The suspended cells were collected by centrifugation twice a week and adherent cells were digested with trypsin-EDTA to prepare a cell suspension for subculture. When the cell saturation was 80%-90% and the cell number reached the requirement, the cells were collected, counted, and inoculated.
CB17 SCID mice, female, 6-8 weeks old, weighing 18-22 g, provided by Zhejiang Vital River Laboratory Animal Technology Co., Ltd.
Each mouse was subcutaneously injected with 100 µL of PBS containing 5×10^6 MM.1S cells + 100 µL of Matrigel (final volume: 200 µL) at the axilla of the right forelimb. At 20 days after injection, when the average tumor volume reached 109 mm^3, mice were grouped for dosing (vehicle control,Ixazomib Citrate, and Example 1 treatment groups, with 6 animals per group). The Ixazomib Citrate group was orally administered by gavage (4 mg/kg) twice a week; the vehicle control group (5%DMSO + 95% normal saline) and the Example 1 treatment group (1.75 mg/kg) were slowly intravenously injected for about 30 seconds each time, twice a week.
The experimental indicators were used to investigate whether tumor growth was inhibited, delayed, or cured. The tumor diameter was measured twice a week using a vernier caliper. The tumor volume was calculated as follows: V = 0.5a×b^2, where a and b were the long and short diameters of the tumor, respectively.
The anti-tumor efficacy of the drug was evaluated based on TGI (%) or relative tumor proliferation rate T/C (%). TGI (%) was the tumor growth inhibition rate. TGI (%) was calculated as follows: TGI (%)=[(1 -(mean tumor volume at the end of dosing in a certain treatment group - mean tumor volume at the start of dosing in the treatment group))/ (mean tumor volume at the end of dosing in the vehicle control group - mean tumor volume at the start of dosing in the vehicle control group)]× 100%.
T/C (%) was calculated as follows:T/C (%)= TRTV/ CRTV× 100 %. Based on the results of tumor measurement, the relative tumor volume (RTV) was calculated as follows: RTV = Vt/V0, where V0 was the mean tumor volume measured at the time of grouping (i.e. d0), and Vt was the mean tumor volume at a certain measurement. Data on the same day were taken for TRTV and CRTV.
Tumor weights were measured at the end of the experiment and T/Cweight was calculated, where Tweight and Cweight were tumor weights in the treatment and vehicle control groups, respectively.
Statistical analysis, including the mean and standard error (SEM) of tumor volume at each time point in each group (see Table 5-1 in Section 5.2 for specific data), was performed to evaluate differences between groups based on data from the treatment group on Day 18 post-dose at the end of the experiment. A t-test was used for comparison between two groups, and one-way ANOVA was used for comparison among three or more groups. If there was a significant difference in F value, the Games-Howell method was used for testing; if there was no significant difference in F value, the Dunnet (2-sided) method was used for analysis. All data were analyzed using SPSS 17.0.

The target in another assay is T1, SSTR2 (Homo sapiens, UniProt P30874).
T1 construct: expressed in transfected cells; host or cells: CHO cells (SSTR2/CHO)
Kind of assay: SSTR2 cAMP test. It counts as cell-based. The settings on record: Max Dose 50000 nM. As for the experimental part: • 1) Compound preparation: The test compound was diluted by 4-fold with DMSO to obtain 10 different concentration points. Approximately 100 nL of the diluted compound was then transferred to a cell reaction plate and centrifuged for later use. • 2) Cell preparation:The cultured SSTR2/CHO cells were collected into a sterile centrifuge tube, and the supernatant was discarded by centrifugation. • 3) The cells were resuspended in assay buffer, counted using a Vi-cell counter, and diluted with assay buffer. • 4) Approximately 100 nL of 100 µM Forskolin was transferred into the cell reaction plate using an Echo and centrifuged. Then, 10 µL of assay buffer containing the cells was added and incubated. • 5) Approximately 10 µL of cAMP detection reagent solution was added to the corresponding wells of the cell reaction plate, and incubated at room temperature in the dark. • 6) The plate was read using a microplate reader. The final value was determined as the ratio of OD at 665 nm to that at 615 nm. • 7) The cAMP value was calculated for each well: Activity (%)=(signal value of sample well - mean signal value of low-signal control wells)/ (mean signal value of high-signal control wells - mean signal value of low-signal control wells). Fitting was performed using the "Nonlinear regression (curve fit)-log(agonist) vs. response -- Variable slope" model in GraphPad Prism 5.0, with the log-transformed compound concentration on the x-axis and cAMP activation rate on the y-axis. The EC50 value of the sample was calculated accordingly. Table 2: SSTR2 cAMP Test Results

[2] abbreviates: 18 days after the start of dosing, Example 1 1.75 mg/kg IV twice a week.

SMILES strings stand for the structures. Several values for one entry are separate records, joined by “and”; a condition that tells them apart may be missing. Equal entries are not always repeated. Entries after “also recorded” stand apart in the source; their conditions may differ.

T1 sequence (P30874 whole entry): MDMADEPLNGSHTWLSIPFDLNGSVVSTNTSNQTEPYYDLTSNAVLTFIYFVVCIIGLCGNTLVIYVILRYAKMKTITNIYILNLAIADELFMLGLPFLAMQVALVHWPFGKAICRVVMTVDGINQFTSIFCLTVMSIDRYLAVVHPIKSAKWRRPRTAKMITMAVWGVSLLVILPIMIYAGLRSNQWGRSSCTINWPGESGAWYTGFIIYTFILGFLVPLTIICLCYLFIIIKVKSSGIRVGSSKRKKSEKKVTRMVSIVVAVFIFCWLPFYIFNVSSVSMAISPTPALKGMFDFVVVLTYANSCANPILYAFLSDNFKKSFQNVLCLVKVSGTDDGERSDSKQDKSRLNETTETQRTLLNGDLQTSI

`CC[C@H](C)[C@@H]([C@@H](CC(=O)N1CCC[C@H]1[C@H](OC)[C@@H](C)C(=O)N[C@H](C)[C@@H](O)c1ccccc1)OC)N(C)C(=O)[C@@H](NC(=O)[C@H](C(C)C)N(C)C(=O)OCc1ccc(NC(=O)[C@H](CCCNC(N)=O)NC(=O)[C@@H](NC(=O)CCCCCN2C(=O)CC(SC[C@H](NC(C)=O)C(=O)NCCOCCOCC(=O)N[C@@H](CCCNC(=N)N)C(=O)N[C@@H](CCCNC(=N)N)C(=O)N[C@@H](CC(C)C)C(=O)N[C@@H](Cc3ccccc3)C(=O)N[C@H]3CSSC[C@@H](C(=O)N[C@H](C(=O)N[C@@H](Cc4c[nH]c5ccccc45)C(=O)N[C@@H](CCCNC(=N)N)C(=O)N[C@@H](CC(=O)O)C(N)=O)[C@@H](C)O)NC(=O)[C@H]([C@@H](C)O)NC(=O)[C@H](CCCCN)NC(=O)[C@@H](Cc4c[nH]c5ccccc45)NC(=O)[C@H](Cc4ccc(O)cc4)NC3=O)C2=O)C(C)C)cc1)C(C)C` (stereo partly drawn) [Example 1, Cys(MC-Val-Cit-PABC-MMAE)-AEEA-Arg-Arg-Leu-Phe-[Cys-Tyr-D-Trp-Lys-Thr-Cys]-Thr-Trp-Arg-Asp-NH2]: the “Bottom (Inhibition at Lowest Point)” value with NCI-H69 was 2.17. The “Top (Inhibition at Highest Point)” value with NCI-H69 worked out at 79.37. This compound registered a T/C in assay [1] (setting [2]) of 0.94%. Further, the TGI in assay [1] (setting [2]) came to 103.59%. Also, the “tumor inhibition compared to the vehicle control group” value in assay [1] (18 days after the start of dosing, Example 1 1.75 mg/kg, p= 0.010, 1.75 mg/kg) is “significant tumor inhibition; also recorded: significant anti-tumor effect”. The “Tumor Volume (Mean ± SEM)” value is 144 ± 14 mm3 in assay [1] (Day 4, Example 1 1.75 mg/kg); 124 ± 13 mm3 in assay [1] (Day 7, Example 1 1.75 mg/kg); 87 ± 11 mm3 in assay [1] (Day 11, Example 1 1.75 mg/kg); 50 ± 8 mm3 in assay [1] (Day 14, Example 1 1.75 mg/kg); 23 mm3 and 23 ± 5 mm3 in assay [1] (Day 18, Example 1 1.75 mg/kg, 1.75 mg/kg); 12 ± 5 mm3 in assay [1] (Day 21, Example 1 1.75 mg/kg). The “Tumor Volume (Mean ± SEM)” value in assay [1] (Day 25, Example 1 1.75 mg/kg) is 0 ± 0 mm3; in assay [1] (Day 28, Example 1 1.75 mg/kg) it was 0 ± 0 mm3. The same compound gave a complete response rate in assay [1] (Example 1 1.75 mg/kg) of 100%. The complete response entry in assay [1] (Example 1 1.75 mg/kg, 6 animals in the group) is “all achieved a complete response”. Moreover, on SSTR2, the activity at 50 µM is 93.9%.

The record behind these values is patent EP4772530A1, “PEPTIDE TARGETING SOMATOSTATIN RECEPTOR, DRUG CONJUGATE AND USE THEREOF” (Mainline Biosciences (Shanghai) Co., Ltd., priority 2023, dated 2025).
